These results are taken from patent US20240156764A1, “INHIBITION OF URACIL DNA GLYCOSYLASE IN THE OPEN CONFORMATION” (CASE WESTERN RESERVE UNIVERSITY, priority 2022, published 2024).

Test [1] concerns the target T1, human UDG (Homo sapiens, UniProt P13051). Description: Time course of human UDG activity on uracil DNA hairpin. The format is biochemical. More on the design: Bacterially expressed and purified full-length human UDG; made in house. From the text:
RFU was monitored over time. Each point on plot represents an average of three replicates. Error bar represents standard deviation from the mean. […] Each data point on the plot is the average of 3 wells (DMSO condition). Error bars represent standard deviation from the mean. […] UDG protein was not added to each reaction. […] Fluorescently labeled FAM-uDNA hairpin was monitored over the melting of the DNA hairpin. […] Each point represents an average of 4 experimental wells. Y Error bars represent the standard deviation from the mean.
To better examine UDG inhibitor activity, we monitored human UDG activity over time.
Target sequence in this assay (P13051 whole entry): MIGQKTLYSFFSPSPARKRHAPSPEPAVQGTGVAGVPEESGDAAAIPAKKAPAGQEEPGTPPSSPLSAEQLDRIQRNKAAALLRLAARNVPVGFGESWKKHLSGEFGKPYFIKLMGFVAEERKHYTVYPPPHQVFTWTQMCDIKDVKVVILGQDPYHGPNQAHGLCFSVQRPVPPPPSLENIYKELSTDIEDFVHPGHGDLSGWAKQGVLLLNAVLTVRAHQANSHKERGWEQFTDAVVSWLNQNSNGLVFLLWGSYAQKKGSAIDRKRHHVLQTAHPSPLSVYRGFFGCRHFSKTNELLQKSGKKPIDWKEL

Test [2] deals with A:8oxoG (MPG, MUTYH) repair in MCF-7 cells. Description: Host-cell reactivation assay, A:8oxoG reporter, MCF-7. To be noted: ATA 2.5 μM. The format is cell-based, human.
Test [3] addresses T1, human UDG. Kind of test: Gel-based DNA cleavage assay with a single U:A basepair. The format is biochemical. More on the design: 6xHis; purchased XTAL Biostructures; host or cells: Sf9 insect cells. As to the method:
20% polyacrylamide nucleic acid urea gel electrophoresis was used to resolve the DNA bands at room temperature, 200 v for 50 min. Analysis and quantification of DNA cleavage were done as follows. A background subtraction step was included using the 23mer from the DNA only lane. […] A single oxo-guanine: cytosine base pair DNA with a Cy3 fluorescent tag on the 3′ end was used (10 nM).
Following pre-incubation occurred for 20 min at 37° C., 2 μL of U:A DNA (500 nM stock) was added to initiate the reaction, total reaction volume of 50 μL/well. Each plate was incubated for 120 min at 37° C. Then, each 96 well plate was sealed and heated at a constant temperature of 95° C. for 55 min using the CFX96 real time system thermocycler. After the heating process, 5 μL of a bromophenol blue denaturing loading dye (20milligrams of bromophenol blue, 9.7 ml of formamide plus 300 μL of 10M NaOH) was added to each reaction well. […] TBE buffer was prepared by dissolving 54 grams of tris base, 28 grams of boric acid, and 4.5 grams of EDTA in 1.0 liter of distilled H2O. Gels were processed at 200V for 60 min in the dark. Gels were imaged based on the fluorescent tags using Typhoon Trio+Variable Mode Imager (Amersham Biosciences) with excitation and emission wavelengths set to 532 nm and 585 nm respectively, photomultiplier tube voltage (PMT) was set to 400V, and pixel size resolution set to 100 μm. Gel data were analyzed using ImageJ software. DNA bands were corrected using a background subtraction step. Percent cleavage was calculated by using fluorescence intensity of the cleaved 23-mer DNA strand divided by the sum of the fluorescence bands (23mer+40mer DNA strands)*100. Relative percent cleavage was generated by using the untreated DMSO condition divided by each treated drug dose*100.
Target sequence in this assay (P13051 1-304 isoform P13051-2): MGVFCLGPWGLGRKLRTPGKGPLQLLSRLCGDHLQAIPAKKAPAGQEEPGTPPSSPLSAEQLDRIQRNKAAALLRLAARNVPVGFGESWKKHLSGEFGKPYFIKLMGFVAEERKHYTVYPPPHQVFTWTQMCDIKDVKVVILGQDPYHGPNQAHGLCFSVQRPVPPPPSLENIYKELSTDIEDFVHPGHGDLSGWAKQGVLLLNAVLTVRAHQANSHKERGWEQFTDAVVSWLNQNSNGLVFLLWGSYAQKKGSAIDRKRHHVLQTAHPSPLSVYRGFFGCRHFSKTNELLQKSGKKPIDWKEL

Values joined by “and” are separate entries in the source; they are usually repeats but may differ in a detail not shown here. Equal entries are not always repeated. Where two headings read alike, the source gives them in different places.

As a reminder, the IC50 is the concentration at which inhibition is half-maximal. With `O=C(O)C1=CC(=C(c2ccc(O)c(C(=O)O)c2)c2ccc(O)c(C(=O)O)c2)C=CC1=O` [ATA, aurintricarboxylic acid], in test [1] (ATA below 250 nM, fixed DNA substrate, 5-hour time course), the “reduction of UDG-mediated un-quenching of u-DNA hairpin” value was “unable to significantly compete”. For the same compound, in test [1] (ATA fixed dose of 500 nM, range of uracil DNA hairpin concentrations), the “UDG activity over time” value is “persistently diminished UDG activity”. Moreover, in test [2], the “inhibition of repair of A:8oxoG basepair” value is given as “not inhibiting”. Besides, in test [3] (ATA 0.46-12.5 μM, UDG 500 pM, DNA 20 nM), the “UDG-mediated DNA cutting activity” value is “diminishes UDG-mediated DNA cutting activity in a dose-dependent manner”. Moreover, the IC50 in test [3] (dsDNA oligo with single U:A base pair, gel-based, read-out: average IC50 towards UDG) is 700 nM and ~700 nM; in test [3] (estimated, read-out: IC50, DNA cutting), 700 nM.
